Measured values: PubChem BioAssay (NCI)
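Dose response: 5 concentrations. Exposure: 48 h. Format: 96-well plates. Endpoint: linear interpolation; highest concentration if not reached. Abbreviation: GI50, concentration required for 50% inhibition of growth. At the TGI there is no net growth.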

Key:
Assay in all cases: NCI tumour cell line growth inhibition, 48 h
[1] = system: M14 melanoma
[2] = system: 786-0 renal
[3] = system: SK-MEL-2 melanoma
[4] = system: HOP-62 NSCLC
[5] = system: UACC-257 melanoma
[6] = system: MDA-MB-231 breast
[7] = system: UACC-62 melanoma
[8] = system: OVCAR-4 ovarian
[9] = system: NCI-H23 lung
[10] = system: ACHN renal
[11] = system: PC-3 prostate
[12] = system: K-562 leukemia
[13] = system: LOX IMVI melanoma
[14] = system: BT-549 breast
[15] = system: DU-145 prostate
[16] = system: MDA-N
[17] = system: HCT-15 colon
[18] = system: MALME-3M melanoma
[19] = system: SK-MEL-28 melanoma
[20] = system: EKVX NSCLC
[21] = system: HS 578T breast
[22] = system: MCF7 breast
[23] = system: COLO 205 colon
[24] = system: NCI-H460 lung
[25] = system: SN12C renal
[26] = system: A498 renal
[27] = system: HOP-92 NSCLC
[28] = system: HCC-2998 colon
[29] = system: T-47D breast
[30] = system: CAKI-1 renal
[31] = system: RXF 393 renal
[32] = system: OVCAR-3 ovarian
[33] = system: MDA-MB-435
[34] = system: U251 CNS
[35] = system: SNB-19 CNS
[36] = system: HCT-116 colon
[37] = system: IGROV1 ovarian
[38] = system: OVCAR-5 ovarian
[39] = system: SF-295 CNS
[40] = system: MOLT-4 leukemia
[41] = system: TK-10 renal
[42] = system: SF-268 CNS
[43] = system: NCI-H226 lung
[44] = system: HL-60(TB) leukemia
[45] = system: NCI/ADR-RES ovarian
[46] = system: HT29 colon
[47] = system: A549 NSCLC
[48] = system: RPMI-8226 leukemia
[49] = system: SK-OV-3 ovarian
[50] = system: CCRF-CEM leukemia
[51] = system: SF-539 CNS
[52] = system: SW-620 colon
[53] = system: OVCAR-8 ovarian
[54] = system: NCI-H522 lung
[55] = system: KM12 colon
[56] = system: SNB-75 CNS
[57] = system: UO-31 renal
[58] = system: SK-MEL-5 melanoma

O=C(c1ccc(Cl)c(Cl)c1)N1CCN(C(=O)c2ccc(Cl)c(Cl)c2)C1=S
GI50 [1]: 19.6 µM
TGI [1]: 37.9 µM
GI50 [2]: 7.16 µM
TGI [2]: 20.5 µM
GI50 [3]: 18.4 µM
TGI [3]: 33.9 µM
GI50 [4]: 17.6 µM
TGI [4]: 42.8 µM
GI50 [5]: 17.3 µM
TGI [5]: 35.6 µM
GI50 [6]: 18.8 µM
TGI [6]: 33.3 µM
GI50 [7]: 18.1 µM
TGI [7]: 34.4 µM
GI50 [8]: 16.8 µM
TGI [8]: 31.4 µM
GI50 [9]: 22 µM
TGI [9]: 43 µM
GI50 [10]: 19.2 µM
TGI [10]: 34.4 µM
GI50 [11]: 16.7 µM
TGI [11]: 31.7 µM
GI50 [12]: 16.3 µM
TGI [12]: 60 µM
GI50 [13]: 7.63 µM
TGI [13]: 24.2 µM
GI50 [14]: 23.6 µM
TGI [14]: 48 µM
GI50 [15]: 14.7 µM
TGI [15]: 29 µM
GI50 [16]: 18.3 µM
TGI [16]: 38.4 µM
GI50 [17]: 19.6 µM
TGI [17]: 43.7 µM
GI50 [18]: 14.9 µM
TGI [18]: 30.6 µM
GI50 [19]: 30.6 µM
TGI [19]: 69.8 µM
GI50 [20]: 20.8 µM
TGI [20]: 38.4 µM
GI50 [21]: 29.1 µM
TGI [21]: > 100 µM
GI50 [22]: 5.57 µM
TGI [22]: 36.4 µM
GI50 [23]: 17.8 µM
TGI [23]: 33.6 µM
GI50 [24]: 22 µM
TGI [24]: 49.4 µM
GI50 [25]: 18.3 µM
TGI [25]: 43.9 µM
GI50 [26]: 20.2 µM
TGI [26]: 36 µM
GI50 [27]: 20 µM
TGI [27]: 34.2 µM
GI50 [28]: 19.9 µM
TGI [28]: 42.9 µM
GI50 [29]: 17.5 µM
TGI [29]: 73.6 µM
GI50 [30]: 14 µM
TGI [30]: 27.1 µM
GI50 [31]: 17.8 µM
TGI [31]: 35.8 µM
GI50 [32]: 17.1 µM
TGI [32]: 35.2 µM
GI50 [33]: 15.4 µM
TGI [33]: 31.3 µM
GI50 [34]: 16.4 µM
TGI [34]: 29.9 µM
GI50 [35]: 21.4 µM
TGI [35]: 40.7 µM
GI50 [36]: 18.1 µM
TGI [36]: 32.8 µM
GI50 [37]: 19.7 µM
TGI [37]: 36.3 µM
GI50 [38]: 24.3 µM
TGI [38]: 51.3 µM
GI50 [39]: 18.5 µM
TGI [39]: 39.7 µM
GI50 [40]: 15.7 µM
TGI [40]: 36.3 µM
GI50 [41]: 18.5 µM
TGI [41]: 36.5 µM
GI50 [42]: 16.8 µM
TGI [42]: 47.9 µM
GI50 [43]: 19 µM
TGI [43]: 37.4 µM
GI50 [44]: 12.7 µM
TGI [44]: 31.3 µM
GI50 [45]: 34.4 µM
TGI [45]: > 100 µM
GI50 [46]: 24.2 µM
TGI [46]: 53 µM
GI50 [47]: 27.8 µM
TGI [47]: 68.9 µM
TGI [48]: 5.6 µM
GI50 [49]: 18.2 µM
TGI [49]: 33.9 µM
GI50 [50]: 4.47 µM
TGI [50]: 18.7 µM
GI50 [51]: 15.1 µM
TGI [51]: 29.9 µM
GI50 [52]: 21.3 µM
TGI [52]: 52.1 µM
GI50 [53]: 19 µM
TGI [53]: 34.1 µM
GI50 [54]: 6.14 µM
TGI [54]: 25 µM
GI50 [55]: 16.1 µM
TGI [55]: 33.1 µM
GI50 [56]: 18.9 µM
TGI [56]: 36.4 µM

C=C1CC(C)(COc2ccc3c(C)c(C)c(=O)oc3c2C)OC1=O (stereo not drawn)
TGI [1]: 10.7 µM
TGI [2]: 3.24 µM
TGI [3]: 5.58 µM
TGI [4]: 28.8 µM
TGI [5]: 6.98 µM
TGI [6]: 7.8 µM
TGI [7]: 2.74 µM
TGI [8]: 19.3 µM
TGI [9]: 5.25 µM
TGI [10]: 7.45 µM
TGI [11]: 7.08 µM
TGI [12]: 4.4 µM
TGI [13]: 2.91 µM
TGI [14]: 3.07 µM
TGI [15]: 7.08 µM
TGI [16]: 4.61 µM
TGI [17]: 4.54 µM
TGI [18]: 5.53 µM
TGI [19]: 5.08 µM
TGI [20]: 15.1 µM
TGI [21]: 15.1 µM
TGI [22]: 2.84 µM
TGI [23]: 2.75 µM
TGI [24]: 19.6 µM
TGI [25]: 4.28 µM
TGI [26]: 4.26 µM
TGI [27]: 2.76 µM
TGI [28]: 4.49 µM
TGI [29]: 3.09 µM
TGI [30]: 6.26 µM
TGI [32]: 14.2 µM
TGI [33]: 11.2 µM
TGI [34]: 18.9 µM
TGI [35]: 30.4 µM
TGI [36]: 2.41 µM
TGI [37]: 3.35 µM
TGI [38]: 16.2 µM
TGI [39]: 16.1 µM
TGI [40]: 4.13 µM
TGI [57]: 22.2 µM
TGI [41]: 3.08 µM
TGI [42]: 15.7 µM
TGI [43]: 32.6 µM
TGI [44]: 0.954 µM
TGI [45]: 13.8 µM
TGI [46]: 5.39 µM
TGI [47]: 21 µM
TGI [48]: 2.59 µM
TGI [49]: 12.2 µM
TGI [50]: 3.2 µM
TGI [51]: 7.04 µM
TGI [52]: 3.92 µM
TGI [53]: 7.69 µM
TGI [54]: 4.28 µM
TGI [55]: 19.6 µM
TGI [58]: 3.73 µM
TGI [56]: 15.9 µM
